Measurements as given in PMC10600239, “Selective MCL-1 inhibitor ABBV-467 is efficacious in tumor models but is associated with cardiac troponin increases in patients” (Communications Medicine, 2023).

Tests used:
Test in all cases: Off-target profiling (Supplementary Data 1)
[1] = target: off-target receptors, ion channels, and transporters (Homo sapiens, UniProt Q02750); settings: TR-FRET Kinome; Invitrogen A-1169612.6 .025(Subs Conc)
[2] = target: off-target receptors, ion channels, and transporters (Homo sapiens, UniProt Q96RR4); settings: TR-FRET Kinome; Invitrogen A-1167389.7 .005(Subs Conc)
[3] = target: off-target receptors, ion channels, and transporters (Homo sapiens, UniProt P24530)
[4] = target: off-target receptors, ion channels, and transporters (Homo sapiens, UniProt P30411)
[5] = target: off-target receptors, ion channels, and transporters (Homo sapiens, UniProt P05771); settings: TR-FRET Kinome, SignalChem A-1167389.7 .05(Subs Conc)
[6] = target: off-target receptors, ion channels, and transporters (Homo sapiens, UniProt P00519); settings: TR-FRET Kinome; Invitrogen A-1196581.2 .007(Subs Conc)
[7] = target: off-target receptors, ion channels, and transporters (Homo sapiens, UniProt Q9H4B4); settings: TR-FRET Kinome; Invitrogen A-1224615.7 .2(Subs Conc)
[8] = target: off-target receptors, ion channels, and transporters (Homo sapiens, UniProt Q9BYT3); settings: TR-FRET Kinome; Invitrogen A-1167389.7 .05(Subs Conc)
[9] = target: off-target receptors, ion channels, and transporters (Homo sapiens, UniProt Q9UQM7); settings: TR-FRET Kinome; Invitrogen A-1169612.6 .003(Subs Conc)
[10] = target: off-target receptors, ion channels, and transporters (Homo sapiens, UniProt P28482); settings: TR-FRET Kinome; Invitrogen A-1224127.6 .05(Subs Conc)
[11] = target: off-target receptors, ion channels, and transporters (Homo sapiens, UniProt P07949); settings: TR-FRET Kinome; Invitrogen A-1180691.2 .1(Subs Conc)
[12] = target: off-target receptors, ion channels, and transporters (Homo sapiens, UniProt P30542)
[13] = target: off-target receptors, ion channels, and transporters (Homo sapiens, UniProt Q14432); settings: Bioprofiling 6pt Antag; cAMP
[14] = target: off-target receptors, ion channels, and transporters (Homo sapiens, UniProt P08908)
[15] = target: off-target receptors, ion channels, and transporters (Homo sapiens, UniProt Q13464); settings: TR-FRET Kinome; Invitrogen A-1213250.2 .1(Subs Conc)
[16] = target: off-target receptors, ion channels, and transporters (Homo sapiens, UniProt P52333); settings: TR-FRET Kinome; Invitrogen A-1180691.2 .05(Subs Conc)
[17] = target: off-target receptors, ion channels, and transporters (Homo sapiens, UniProt O14965); settings: TR-FRET Kinome; Invitrogen A-1169612.6 .006(Subs Conc)
[18] = target: off-target receptors, ion channels, and transporters (Homo sapiens, UniProt P04150); settings: CEREP
[19] = target: off-target receptors, ion channels, and transporters (Homo sapiens, UniProt P42680); settings: TR-FRET Kinome; SignalChem A-1214384.2 .02(Subs Conc)
[20] = target: off-target receptors, ion channels, and transporters (Homo sapiens, UniProt Q04771); settings: TR-FRET Kinome; Invitrogen A-1180691.2 .05(Subs Conc)
[21] = target: off-target receptors, ion channels, and transporters (Homo sapiens, UniProt Q08881); settings: TR-FRET Kinome; Invitrogen A-1224615.7 .025(Subs Conc)
[22] = target: off-target receptors, ion channels, and transporters (Homo sapiens, UniProt Q12851); settings: TR-FRET Kinome; Invitrogen A-1169612.6 .04(Subs Conc)
[23] = target: off-target receptors, ion channels, and transporters (Homo sapiens, UniProt P30291); settings: TR-FRET Kinome; Carna Biosciences A-1248830.7 .015(Subs Conc)
[24] = target: off-target receptors, ion channels, and transporters (Homo sapiens, UniProt P31749); settings: TR-FRET Kinome; SignalChem A-1169612.6 .2(Subs Conc)
[25] = target: off-target receptors, ion channels, and transporters (Homo sapiens, UniProt Q05397); settings: TR-FRET Kinome; Invitrogen A-1167389.7 .05(Subs Conc)

Chain of off-target receptors, ion channels, and transporters (Homo sapiens, UniProt P30542) (P30542 whole entry): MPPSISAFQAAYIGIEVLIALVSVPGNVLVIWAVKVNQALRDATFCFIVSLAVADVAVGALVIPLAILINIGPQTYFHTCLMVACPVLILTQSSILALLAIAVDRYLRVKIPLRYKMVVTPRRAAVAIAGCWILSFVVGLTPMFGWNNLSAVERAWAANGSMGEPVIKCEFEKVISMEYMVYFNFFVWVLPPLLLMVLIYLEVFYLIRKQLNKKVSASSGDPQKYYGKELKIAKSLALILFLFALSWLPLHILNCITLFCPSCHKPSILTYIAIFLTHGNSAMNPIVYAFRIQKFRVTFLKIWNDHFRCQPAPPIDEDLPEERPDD
Chain of off-target receptors, ion channels, and transporters (Homo sapiens, UniProt P24530) (P24530 27-442): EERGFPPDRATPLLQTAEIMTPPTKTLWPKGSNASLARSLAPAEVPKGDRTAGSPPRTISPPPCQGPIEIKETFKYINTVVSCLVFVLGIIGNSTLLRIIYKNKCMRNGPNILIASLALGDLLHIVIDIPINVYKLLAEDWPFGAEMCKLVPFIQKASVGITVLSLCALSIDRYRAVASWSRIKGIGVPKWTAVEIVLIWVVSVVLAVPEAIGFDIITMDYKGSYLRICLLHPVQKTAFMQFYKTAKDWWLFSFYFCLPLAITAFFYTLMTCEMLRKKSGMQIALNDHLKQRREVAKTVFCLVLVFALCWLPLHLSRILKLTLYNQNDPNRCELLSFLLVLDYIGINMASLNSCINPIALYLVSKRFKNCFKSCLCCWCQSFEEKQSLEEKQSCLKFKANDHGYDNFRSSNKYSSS
Chain of off-target receptors, ion channels, and transporters (Homo sapiens, UniProt P05771) (P05771 2-671): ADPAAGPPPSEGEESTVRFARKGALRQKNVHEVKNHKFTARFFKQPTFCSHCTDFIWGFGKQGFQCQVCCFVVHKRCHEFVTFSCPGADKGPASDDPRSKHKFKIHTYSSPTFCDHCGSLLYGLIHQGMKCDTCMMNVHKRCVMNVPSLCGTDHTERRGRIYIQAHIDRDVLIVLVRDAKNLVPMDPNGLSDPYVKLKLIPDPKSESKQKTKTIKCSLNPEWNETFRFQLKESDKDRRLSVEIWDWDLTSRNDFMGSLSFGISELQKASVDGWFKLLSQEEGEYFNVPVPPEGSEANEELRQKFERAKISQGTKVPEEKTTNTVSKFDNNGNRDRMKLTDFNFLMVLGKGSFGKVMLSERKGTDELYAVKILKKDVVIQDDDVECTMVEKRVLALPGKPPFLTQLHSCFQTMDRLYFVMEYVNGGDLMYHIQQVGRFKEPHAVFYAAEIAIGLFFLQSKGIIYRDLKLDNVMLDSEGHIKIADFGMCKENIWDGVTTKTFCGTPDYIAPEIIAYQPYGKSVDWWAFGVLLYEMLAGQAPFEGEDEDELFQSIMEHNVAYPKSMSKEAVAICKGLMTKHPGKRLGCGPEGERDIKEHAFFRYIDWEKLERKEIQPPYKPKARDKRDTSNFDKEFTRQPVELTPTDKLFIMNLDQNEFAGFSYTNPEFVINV
Chain of off-target receptors, ion channels, and transporters (Homo sapiens, UniProt P08908) (P08908 whole entry): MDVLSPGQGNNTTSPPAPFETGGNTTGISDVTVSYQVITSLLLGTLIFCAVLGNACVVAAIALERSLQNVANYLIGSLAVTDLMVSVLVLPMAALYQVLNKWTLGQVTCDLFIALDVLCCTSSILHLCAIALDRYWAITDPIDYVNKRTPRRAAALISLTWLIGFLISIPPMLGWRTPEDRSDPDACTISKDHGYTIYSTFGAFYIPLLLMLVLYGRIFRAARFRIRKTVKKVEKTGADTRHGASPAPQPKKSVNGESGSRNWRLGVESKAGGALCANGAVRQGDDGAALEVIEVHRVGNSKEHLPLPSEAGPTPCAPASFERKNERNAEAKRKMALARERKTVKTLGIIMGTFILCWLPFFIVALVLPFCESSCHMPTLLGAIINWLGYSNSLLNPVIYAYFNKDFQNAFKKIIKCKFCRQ
Chain of off-target receptors, ion channels, and transporters (Homo sapiens, UniProt P30411) (P30411 whole entry): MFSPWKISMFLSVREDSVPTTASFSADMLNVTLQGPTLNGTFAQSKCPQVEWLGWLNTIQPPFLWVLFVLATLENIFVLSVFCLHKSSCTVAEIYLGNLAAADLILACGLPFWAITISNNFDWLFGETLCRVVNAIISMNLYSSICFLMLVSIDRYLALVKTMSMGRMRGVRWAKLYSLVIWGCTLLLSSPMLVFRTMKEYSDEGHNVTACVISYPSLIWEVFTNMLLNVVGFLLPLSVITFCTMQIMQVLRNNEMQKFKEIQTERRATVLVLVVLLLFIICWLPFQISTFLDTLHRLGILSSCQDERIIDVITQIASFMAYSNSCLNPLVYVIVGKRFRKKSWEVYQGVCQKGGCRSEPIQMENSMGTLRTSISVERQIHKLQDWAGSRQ
Chain of off-target receptors, ion channels, and transporters (Homo sapiens, UniProt Q14432) (Q14432 whole entry): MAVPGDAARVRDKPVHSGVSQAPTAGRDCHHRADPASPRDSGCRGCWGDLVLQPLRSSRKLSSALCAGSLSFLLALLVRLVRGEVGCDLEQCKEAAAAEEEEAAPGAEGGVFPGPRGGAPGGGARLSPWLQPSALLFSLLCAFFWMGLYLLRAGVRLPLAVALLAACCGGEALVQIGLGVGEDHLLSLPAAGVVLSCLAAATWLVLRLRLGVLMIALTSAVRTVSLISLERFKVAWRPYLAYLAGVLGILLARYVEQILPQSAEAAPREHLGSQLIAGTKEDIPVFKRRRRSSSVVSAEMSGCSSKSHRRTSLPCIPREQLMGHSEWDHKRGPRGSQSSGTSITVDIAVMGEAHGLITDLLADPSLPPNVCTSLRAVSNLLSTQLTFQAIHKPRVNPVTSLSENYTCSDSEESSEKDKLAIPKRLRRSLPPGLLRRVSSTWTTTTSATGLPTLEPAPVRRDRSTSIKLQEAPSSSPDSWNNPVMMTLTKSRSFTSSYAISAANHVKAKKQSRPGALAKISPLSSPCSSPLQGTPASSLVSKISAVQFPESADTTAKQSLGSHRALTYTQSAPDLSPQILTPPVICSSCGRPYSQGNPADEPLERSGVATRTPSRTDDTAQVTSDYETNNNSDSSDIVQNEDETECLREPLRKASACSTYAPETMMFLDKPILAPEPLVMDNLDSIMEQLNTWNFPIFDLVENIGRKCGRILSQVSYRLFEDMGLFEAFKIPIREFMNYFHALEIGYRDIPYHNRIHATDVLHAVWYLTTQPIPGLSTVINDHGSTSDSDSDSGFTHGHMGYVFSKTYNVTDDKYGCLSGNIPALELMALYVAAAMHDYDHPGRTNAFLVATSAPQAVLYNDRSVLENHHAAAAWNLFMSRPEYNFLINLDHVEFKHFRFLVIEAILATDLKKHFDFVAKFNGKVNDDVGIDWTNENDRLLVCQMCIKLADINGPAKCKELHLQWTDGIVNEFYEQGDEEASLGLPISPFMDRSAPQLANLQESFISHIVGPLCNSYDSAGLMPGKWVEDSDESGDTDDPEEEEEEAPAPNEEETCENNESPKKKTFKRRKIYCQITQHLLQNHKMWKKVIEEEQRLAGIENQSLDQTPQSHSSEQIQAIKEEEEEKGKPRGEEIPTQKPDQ
Chain of off-target receptors, ion channels, and transporters (Homo sapiens, UniProt P00519) (P00519 whole entry): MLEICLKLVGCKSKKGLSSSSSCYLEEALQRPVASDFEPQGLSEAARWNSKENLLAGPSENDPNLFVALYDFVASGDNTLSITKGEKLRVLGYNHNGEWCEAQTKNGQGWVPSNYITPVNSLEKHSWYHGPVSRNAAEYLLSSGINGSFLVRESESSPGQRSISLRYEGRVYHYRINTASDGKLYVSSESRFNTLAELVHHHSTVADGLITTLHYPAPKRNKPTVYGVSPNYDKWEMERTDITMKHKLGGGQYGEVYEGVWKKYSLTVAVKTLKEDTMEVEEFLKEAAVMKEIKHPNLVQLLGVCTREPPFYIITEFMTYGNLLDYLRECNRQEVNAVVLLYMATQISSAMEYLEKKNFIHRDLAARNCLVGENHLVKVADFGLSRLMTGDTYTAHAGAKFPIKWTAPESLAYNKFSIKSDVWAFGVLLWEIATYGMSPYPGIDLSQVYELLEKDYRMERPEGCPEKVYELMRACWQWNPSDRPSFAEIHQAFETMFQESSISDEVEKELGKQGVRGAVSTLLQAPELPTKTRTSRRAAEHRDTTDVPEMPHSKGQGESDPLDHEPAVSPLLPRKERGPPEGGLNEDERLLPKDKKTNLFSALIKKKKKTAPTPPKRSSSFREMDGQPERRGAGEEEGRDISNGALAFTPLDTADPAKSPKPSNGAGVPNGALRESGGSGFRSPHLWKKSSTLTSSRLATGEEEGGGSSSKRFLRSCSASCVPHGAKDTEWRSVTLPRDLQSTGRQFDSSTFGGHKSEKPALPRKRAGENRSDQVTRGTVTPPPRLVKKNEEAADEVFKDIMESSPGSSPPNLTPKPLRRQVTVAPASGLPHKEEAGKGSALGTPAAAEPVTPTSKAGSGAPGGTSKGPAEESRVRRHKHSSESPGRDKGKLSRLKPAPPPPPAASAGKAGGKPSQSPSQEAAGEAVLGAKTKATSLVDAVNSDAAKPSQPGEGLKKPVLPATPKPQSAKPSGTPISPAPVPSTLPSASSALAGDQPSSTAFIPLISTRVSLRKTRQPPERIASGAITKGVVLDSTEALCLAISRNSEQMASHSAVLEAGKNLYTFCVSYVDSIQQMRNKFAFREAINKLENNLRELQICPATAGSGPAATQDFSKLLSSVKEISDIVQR
Chain of off-target receptors, ion channels, and transporters (Homo sapiens, UniProt Q02750) (Q02750 whole entry): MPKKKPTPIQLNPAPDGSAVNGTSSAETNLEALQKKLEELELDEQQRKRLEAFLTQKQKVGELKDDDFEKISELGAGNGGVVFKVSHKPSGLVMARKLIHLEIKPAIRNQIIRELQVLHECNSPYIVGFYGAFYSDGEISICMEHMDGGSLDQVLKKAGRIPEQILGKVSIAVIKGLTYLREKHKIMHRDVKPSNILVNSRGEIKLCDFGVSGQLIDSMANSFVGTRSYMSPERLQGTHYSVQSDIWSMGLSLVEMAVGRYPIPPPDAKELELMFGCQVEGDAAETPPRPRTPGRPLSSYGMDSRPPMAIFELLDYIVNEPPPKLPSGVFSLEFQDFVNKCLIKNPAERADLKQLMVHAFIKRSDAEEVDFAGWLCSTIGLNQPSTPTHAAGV

Cc1c(Cl)c2c(Cl)c(C)c1-c1c(-c3ccc(F)cc3)sc3ncnc(c13)O[C@@H](C(=O)O)Cc1cc(ccc1OCc1ccnc(-c3ccc(OC[C@H]4COCCO4)cc3)n1)OC[C@@H](CN1CCN(C)CC1)O2 [ABBV-467]
> 10 µM: MEK1 - IC50 [1] | CAMKK2 - IC50 [2] | ETB CHO Human - EC50 ([3]; Bioprofiling 6pt Ag) | ETB CHO Human - IC50 ([3]; Bioprofiling 6pt Antag, BQ-3020) | B2 CHO Human - EC50 ([4]; Bioprofiling 6pt Ag) | IC50 ([5]; read-out: PKCbeta2 - IC50) | Abl - IC50 [6] | Plk3 - IC50 [7] | STK33 - IC50 [8] | CAMK2A - IC50 [9] | Erk2 - IC50 [10] | RET - IC50 [11] | A1 CHO Human - EC50 ([12]; Bioprofiling 6pt Ag) | A1 CHO Human - IC50 ([12]; Bioprofiling 6pt Antag, N6-Cyclopentyladenosine (CPA)) | PDE3A Human - IC50 [13] | 5-HT1A CHO Human - EC50 ([14]; Bioprofiling 6pt Ag) | 5-HT1A CHO Human - IC50 ([14]; Bioprofiling 6pt Antag, 5-Carboxytryptamine (5-CT)) | Rock1 - IC50 [15] | JAK3 - IC50 [16] | Aurora2 - IC50 [17] | TEC - IC50 [19] | ACVR1 - IC50 [20] | ITK - IC50 [21] | MAP4K2 - IC50 [22] | Wee1 - IC50 [23] | Akt1 - IC50 [24] | FAK - IC50 [25]
>10.00 µM: B2 CHO Human - IC50 ([4]; Bioprofiling 6pt Antag, Bradykinin)
1000 nM: Glucocorticoid Human Agonist Ligand (Binding Assay) - IC50 [18]
> 3.9 µM: Ki ([5]; read-out: PKCbeta2 - Ki)
